Key:
[1] = system: lipopolysaccharide (LPS)-induced mouse model of sepsis; experiment: LPS-induced mouse model of sepsis, survival analysis; format: in vivo; conditions: for average survival time: LPS 40 mg/kg i.p., LPS group 15.4±2.9; for time after which the mice began to die: LPS 40 mg/kg i.p. 30 minutes later, LPS group about 12 hours
Protocol: A lipopolysaccharide (LPS)-induced mouse model of sepsis was used to determine the preventive and therapeutic effect of the compounds of the present invention (as exemplified by compounds 1-1 and 2-1 obtained in Examples 1 and 3) against sepsis. The method was as follows:
Experimental animals: 60 male C57BL/6J mice aged 6-8 weeks. The experimental animals were housed in an environment with room temperature of 25±2° C., 12 hours dark/12 hours light, and fed with conventional feed.
Survival analysis experiment: the mice were randomly divided into 6 groups of 10 mice each, namely, i) a solvent control group: each animal was administered 0.9% saline; ii) a sepsis model group (LPS group): each animal was injected intraperitoneally with LPS at a dose of 40 mg/kg; iii) a treatment group of medium-dose compound 1-1 (LPS+25 mg/kg of compound 1-1 obtained in Example 1): each animal was administered compound 1-1 by gavage at a dose of 25 mg/kg, followed by intraperitoneal injection of LPS at a dose of 40 mg/kg 30 minutes later; iv) a treatment group of high-dose compound 1-1 (LPS+50 mg/kg of compound 1-1 obtained in Example 1): each animal was administered compound 1-1 by gavage at a dose of 50 mg/kg, followed by intraperitoneal injection of LPS at a dose of 40 mg/kg 30 minutes later; v) a treatment group of high-dose compound 2-1 (LPS+50 mg/kg compound 2-1 obtained in Example 2): each animal was administered compound 2-1 by gavage at a dose of 50 mg/kg, followed by intraperitoneal injection of LPS at a dose of 40 mg/kg 30 minutes later; vi) a treatment group of medium-dose indole analogue 3-[(1-methyl-1H-indole-2-carbonyl)amino]propionic acid disclosed in CN2019107285315 (LPS+25 mg/kg of indole analogue 3-[(1-methyl-1H-indole-2-carbonyl)amino]propionic acid disclosed in CN2019107285315). The survival of the mice in each group was monitored, the time of death of the mice was recorded, and the average survival time of the animals in each group was calculated.

[2] = Stability at high temperature and high humidity (residual content); format: physicochemical
Protocol: The stability of compounds 1-1, 2-1 and the indole analogue 3-[(1-methyl-1H-indole-2-carbonyl) amino]propionic acid disclosed in CN2019107285315 was tested by experiments at high temperature and high humidity. The compounds were placed in 24-well plates, spread as a thin layer with a thickness of no more than 5 mm and placed in an oven at 60° C. for 10 days. Observation of appearance, TLC identification and determination of absorbance were carried out on the 5th day and the 10th day, respectively, in order to compare with the samples on the 0th day. An amount of compounds were taken into tightly closed brown colored penicillin bottles (the compounds were spread as a thin layer with a thickness of no more than 5 mm) and then placed into a tightly closed container with saturated NaCl solution and left at room temperature away from light for 10 days. Observation of appearance, TLC identification and determination of absorbance were carried out on the 5th day and the 10th day, respectively, in order to compare with the samples on the 0th day.

[3] = high humidity environment (saturated NaCl, room temperature, away from light), after 5 days
[4] = high humidity environment (saturated NaCl, room temperature, away from light), after 10 days
[5] = high temperature environment (oven at 60° C.), after 5 days
[6] = high temperature environment (oven at 60° C.), after 10 days

With Cn1c(C(=O)NCCC(=O)O)cc2ccccc21 [3-[(1-methyl-1H-indole-2-carbonyl)amino]propionic acid, reference compound] the average survival time ([1]; 25 mg/kg) was 19.8 ± 3.1 h, the residual content [2, 3] was 29.5±0.1% and the residual content [2, 4] was 8.8±0.1%. For the same compound, the residual content [2, 5] was 23.1±0.1% and the residual content [2, 6] was 4.2±0.1%.

For CC(=O)OCCCNC(=O)c1c(C=O)c2ccccc2n1C [compound 1-1, propyl 3-[(3-formyl-1-methyl-1H-indole-2-carbonyl)amino]acetate], the “time after which the mice began to die” value ([1]; 25 mg/kg) was 20 h, the average survival time ([1]; 25 mg/kg) was 24.8 ± 3.9 h and the “time after which the mice began to die” value ([1]; 50 mg/kg) was 28 h. It also gave an average survival time ([1]; 50 mg/kg) of 26.4 ± 4.3 h, a residual content [2, 3] of 93.5±0.4% and a residual content [2, 4] of 90.7±0.3%. The residual content [2, 5] was 95.4±08% and the residual content [2, 6] was 94.2±0.6%.

For Cn1c(C(=O)NCCCOC(=O)c2ccccc2)c(C=O)c2ccccc21 [compound 2-1], the “time after which the mice began to die” value ([1]; 50 mg/kg) was 22 h, the average survival time ([1]; 50 mg/kg) was 24.2 ± 4.9 h and the residual content [2, 3] was 94.2±0.3%. The residual content [2, 4] was 90.1±0.8%, the residual content [2, 5] was 93.6±0.6% and the residual content [2, 6] was 91.7±0.5%.

— patent publication US12692232B2, “Indole carboxamide compound, preparation therefor and use thereof” (NANJING RUISHUNING MEDICAL TECHNOLOGY CO., LTD., priority 2021, dated 2026)
